Assay [1] has as its target T1, Fatty-acid amide hydrolase 1 (Homo sapiens, UniProt O00519).
T1 sequence (O00519 whole entry): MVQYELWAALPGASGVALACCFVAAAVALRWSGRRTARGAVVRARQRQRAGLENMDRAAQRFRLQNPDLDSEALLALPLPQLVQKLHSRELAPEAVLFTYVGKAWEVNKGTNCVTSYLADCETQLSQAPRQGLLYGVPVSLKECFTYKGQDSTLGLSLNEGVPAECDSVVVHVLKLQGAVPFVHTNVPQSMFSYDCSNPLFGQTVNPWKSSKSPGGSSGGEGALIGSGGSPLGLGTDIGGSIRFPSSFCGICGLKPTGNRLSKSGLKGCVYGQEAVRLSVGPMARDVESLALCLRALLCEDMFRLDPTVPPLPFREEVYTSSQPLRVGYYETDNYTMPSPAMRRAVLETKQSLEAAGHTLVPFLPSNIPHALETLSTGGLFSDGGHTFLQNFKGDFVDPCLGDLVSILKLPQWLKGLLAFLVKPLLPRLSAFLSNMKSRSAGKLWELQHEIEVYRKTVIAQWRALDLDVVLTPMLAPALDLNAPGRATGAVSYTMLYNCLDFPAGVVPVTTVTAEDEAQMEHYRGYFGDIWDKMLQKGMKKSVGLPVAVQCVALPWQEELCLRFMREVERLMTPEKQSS
The assay can be described thus: Inhibition of human recombinant FAAH overexpressed in African green monkey COS7 cells using [3H]-anandamide as substrate preincubated for 10 mins before substrate addition measured after 10 mins by liquid scintillation counting analysis. Type of assay: cell-based, COS-7.

In assay [2] the target is Cannabinoid receptor 2 (Homo sapiens) (UniProt P34972). The assay can be described thus: Agonist activity at human CB2 receptor expressed in CHO cell membranes up to 10 uM incubated for 10 mins prior to testing by [35S]GTPgammaS binding assay. The class given is functional. (Binding of GTPγS marks nucleotide exchange on a G protein.)
Assay [3] deals with T2, Prostaglandin G/H synthase 2 (Homo sapiens) (UniProt P35354).
T2 sequence (whole entry): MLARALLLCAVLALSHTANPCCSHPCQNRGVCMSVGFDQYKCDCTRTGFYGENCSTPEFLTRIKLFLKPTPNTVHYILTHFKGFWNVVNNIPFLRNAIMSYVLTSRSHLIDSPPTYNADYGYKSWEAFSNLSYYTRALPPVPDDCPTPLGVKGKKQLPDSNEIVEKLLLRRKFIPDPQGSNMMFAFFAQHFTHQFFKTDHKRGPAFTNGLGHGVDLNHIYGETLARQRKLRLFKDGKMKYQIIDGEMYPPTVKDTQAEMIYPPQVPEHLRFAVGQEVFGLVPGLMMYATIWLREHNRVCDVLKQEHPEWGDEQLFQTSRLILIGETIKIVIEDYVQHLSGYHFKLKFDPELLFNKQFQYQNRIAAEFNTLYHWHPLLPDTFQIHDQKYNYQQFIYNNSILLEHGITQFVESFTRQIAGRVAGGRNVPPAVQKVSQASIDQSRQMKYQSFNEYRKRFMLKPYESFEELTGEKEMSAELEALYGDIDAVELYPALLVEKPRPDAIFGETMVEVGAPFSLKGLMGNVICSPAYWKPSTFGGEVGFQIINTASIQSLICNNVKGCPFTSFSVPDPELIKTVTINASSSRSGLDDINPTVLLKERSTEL
As to the kind of experiment: Inhibition of human recombinant COX-2 assessed as inhibition of 2-AG cyclooxygenation at 10 uM measured within 10 to 50 secs relative to control.

Assay [4] concerns the target T3, Lysophosphatidylserine lipase ABHD12 (Mus musculus) (UniProt Q99LR1).
T3 sequence (whole entry): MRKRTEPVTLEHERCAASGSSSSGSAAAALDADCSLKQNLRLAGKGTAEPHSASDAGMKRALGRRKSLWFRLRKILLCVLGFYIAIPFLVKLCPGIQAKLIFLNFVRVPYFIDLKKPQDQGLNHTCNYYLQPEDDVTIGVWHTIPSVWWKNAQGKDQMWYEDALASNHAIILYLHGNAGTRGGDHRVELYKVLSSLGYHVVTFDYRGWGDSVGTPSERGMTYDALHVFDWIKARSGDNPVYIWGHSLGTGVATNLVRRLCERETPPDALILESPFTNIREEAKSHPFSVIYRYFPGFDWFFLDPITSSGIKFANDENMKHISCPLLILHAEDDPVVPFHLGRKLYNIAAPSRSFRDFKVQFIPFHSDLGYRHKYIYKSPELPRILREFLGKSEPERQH
The assay can be described thus: Inhibition of TAMRA-FP-labeled ABHD12 in mouse brain membrane at 10 uM after 1 hr by fluorescent gel scanning assay. The class given is cell membranes.

Assay [5] deals with T4, Fatty-acid amide hydrolase 1 (Mus musculus) (UniProt O08914).
T4 sequence (whole entry): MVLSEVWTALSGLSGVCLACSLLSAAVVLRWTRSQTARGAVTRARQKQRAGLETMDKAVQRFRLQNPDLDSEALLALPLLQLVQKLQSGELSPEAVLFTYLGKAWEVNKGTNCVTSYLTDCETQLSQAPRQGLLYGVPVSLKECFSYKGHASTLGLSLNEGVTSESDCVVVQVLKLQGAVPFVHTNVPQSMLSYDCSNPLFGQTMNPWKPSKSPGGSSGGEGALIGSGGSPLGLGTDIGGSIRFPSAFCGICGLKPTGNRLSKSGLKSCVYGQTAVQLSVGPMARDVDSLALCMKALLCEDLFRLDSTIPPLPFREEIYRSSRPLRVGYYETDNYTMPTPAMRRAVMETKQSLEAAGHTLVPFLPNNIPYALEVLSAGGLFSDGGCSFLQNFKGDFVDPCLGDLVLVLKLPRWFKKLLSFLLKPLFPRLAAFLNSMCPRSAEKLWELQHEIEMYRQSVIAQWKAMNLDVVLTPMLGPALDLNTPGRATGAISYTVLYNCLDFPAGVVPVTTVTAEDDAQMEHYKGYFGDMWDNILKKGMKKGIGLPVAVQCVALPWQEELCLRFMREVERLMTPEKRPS
As to the kind of experiment: Inhibition of TAMRA-FP-labeled FAAH in mouse brain membrane at 1 uM after 1 hr by fluorescent gel scanning assay. The class given is cell membranes.

Assay [6] concerns the target T4, Fatty-acid amide hydrolase 1 (Mus musculus). The assay can be described thus: Inhibition of TAMRA-FP-labeled FAAH in mouse brain membrane after 1 hr by fluorescent gel scanning assay. The class given is cell membranes.
The target of assay [7] is T5, Fatty-acid amide hydrolase 1 (Homo sapiens) (UniProt O00519).
T5 sequence (whole entry): T1 sequence (O00519 whole entry)
The assay can be described thus: Reversible inhibition of human recombinant FAAH overexpressed in African green monkey COS7 cells using […] as substrate assessed as recovery of enzyme activity at 20 x IC50 preincubated for 60 mins followed by 500 fold dilution measured after 10 mins by HPLC analysis. The class given is cell-based. Conditions: COS-7.

Assay [8] concerns the target T5, Fatty-acid amide hydrolase 1 (Homo sapiens). The assay can be described thus: Inhibition of human recombinant FAAH overexpressed in African green monkey COS7 cells using [3H]-anandamide as substrate at 10 to 300 uM preincubated for 10 to 60 mins by liquid scintillation counting analysis. The class given is cell-based. Conditions: COS-7.

The structures appear in SMILES notation. Activity calls are given as the source filed them. The calls are words filed in the database; no cut-off is given here.

For orientation: inhibition means the relative decrease from the control value, in per cent.

Cannabinoid receptor 2 (Homo sapiens), sequence (P34972 whole entry): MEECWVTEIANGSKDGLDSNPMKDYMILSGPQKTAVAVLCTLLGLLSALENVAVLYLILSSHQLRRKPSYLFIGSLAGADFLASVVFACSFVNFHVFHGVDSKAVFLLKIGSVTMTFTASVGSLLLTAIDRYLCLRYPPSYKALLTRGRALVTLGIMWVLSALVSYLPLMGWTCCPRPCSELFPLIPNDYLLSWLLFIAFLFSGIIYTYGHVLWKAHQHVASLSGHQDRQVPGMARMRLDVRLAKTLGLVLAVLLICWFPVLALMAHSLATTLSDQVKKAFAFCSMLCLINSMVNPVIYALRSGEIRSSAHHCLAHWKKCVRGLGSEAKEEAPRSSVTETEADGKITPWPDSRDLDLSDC

`COc1nn([C@@H](C)c2ccc(CC(C)C)cc2)c(=O)o1`: the IC50 is 11 nM in assay [1] (read-out: IC50) and 11.5 nM in assay [1] (read-out: pIC50 (converted)). Besides, the outcome in assay [2] was inactive. Further, the inhibition in assay [3] is 10%; in assay [6], “Dose-dependent effect”. Also, the inhibition result in assay [4] is “inactive”. Moreover, the inhibition result in assay [5], in assay [7] and in assay [8] was “Active” in each case.

For the origin of these results see ChEMBL document CHEMBL3085700 (J Med Chem, 2013).
